Assays:
CD3+ T cells = test: T cell signaling, phospho-flow of CD3/CD28-activated PBMCs; type: cell-based, human; conditions: CD3- and CD28-conjugated beads
Experimental: For phospho-flow, B cells were activated by crosslinking their BCRs with anti-human IgM antibodies (10 μg/mL; BD Biosciences) for 10 minutes at 37 °C. Cells were then fixed with 2 % paraformaldehyde at 37 °C for 12 minutes, permeabilized, and stained with anti-CD3-FITC (SK7; BD Biosciences), anti-CD20-PerCP-Cy5.5 (H1; BD Biosciences), anti-pBtk (Y223)-Alexa647 (N35-86; BD Biosciences), anti-pPLCγ2 (Y759)-Alexa647 (K86-689.37; BD Biosciences), anti-pSTAT1 (Y701)-Alexa647 (4a; BD Biosciences), anti-pSTAT3 (Y705)-Alexa647 (4/P-STAT3; BD Biosciences), anti-pSTAT5 (Y694)-Alexa647 (47; BD Biosciences), and anti-pERK1/2 (T202/204)-Alexa647 (20A; BD Biosciences) antibodies. The cells were then washed and analyzed on an LSR II flow cytometer (BD Biosciences). Data were analyzed using FlowJo software, version 8.8 (Treestar, Ashland, OR, USA).
Figure S5. Effect of HM71224 on human T cell signaling. […] The expression level of p-STAT1, p-STAT3, p-STAT5, and p-ERK1/2 by CD3+ T cells was then measured by phospho-flow cytometry.

[1] = test system: DBA/1 J mice with collagen-induced arthritis; test: Collagen-induced arthritis (CIA) model; type: in vivo, mouse; conditions: dexamethasone 0.2 mg/kg once a day
Experimental: All animal experimental protocols were approved by the animal care and use committee of the Hanmi Research Center, and performed in accordance with approved guidelines. Male DBA/1 J mice (9 weeks old; n = 7 per group) were immunized with an emulsion of Complete Freund’s Adjuvant and bovine type II collagen (CII) (total volume, 0.07 mL) via intradermal injection at the base of the tail (day 0). Three weeks later, the mice received a booster immunization comprising bovine CII emulsified in Incomplete Freund’s Adjuvant. […] The arthritis score and body weight were measured three times per week for 2 weeks after administration of the drugs (Additional file 1: Figure S1). The arthritis score was determined by grading each paw from 0 to 4 based on erythema, swelling, and flexion of the joint and was expressed as the sum of the scores of all four paws. Serum levels of IL-6 were measured by Luminex analysis in a bead-based immunoassay (EMD Millipore Corporation). Serum levels of anti-CII and total IgG were measured by ELISA (Chondrex, Seattle, WA, USA; Bethyl Laboratories, Montgomery, TX, USA).
Micro-CT of the hind limbs was performed using a Siemens Inveon Micro-CT/PET scanner (Siemens Medical Solutions, Knoxville, TN, USA).
The hind legs of each mouse were fixed with 10 % formalin, decalcified in 5 % formic acid, and embedded in paraffin. Sections were then cut and stained with hematoxylin and eosin (H&E). The bone erosion index was scored from 0 to 4 according to the following criteria: 0 = no erosion, 1 = mild (focal subchondral erosion), 2 = moderate (multiple subchondral erosions), 3 = high (as above and focal erosion of talus), and 4 = maximum (multiple erosions of tarsal and metatarsal bones).
Figure S1. Experiment design of collagen induced arthritis. Untreated DBA/1J mice (n=7) served as healthy controls (Ctrl). DBA/1J mice (n= 56) were immunized Day 0 and day 21. On day 10 after boosting (i.e. day 31), the induction of CIA was evaluated. […] Immunized mice (n=42) were divided into 6 groups (n=7 in each group). […] CIA, collagen induced arthritis.

`C[C@@H]1CCN(C(=O)CC#N)C[C@@H]1N(C)c1ncnc2[nH]ccc12` [Tofacitinib] was tested, and the “T cell receptor signaling (p-STAT1, p-STAT3 and p-STAT5)” value (CD3+ T cells) was “significantly suppressed”.

For `C=CC(=O)N1CCC[C@@H](n2nc(-c3ccc(Oc4ccccc4)cc3)c3c(N)ncnc32)C1` [PCI-32765, Ibrutinib], the “T cell receptor signaling (p-STAT1, p-STAT3 and p-STAT5)” value (CD3+ T cells) was “not affected” and the “p-ERK1/2 in CD3+ T cells” value (CD3+ T cells) was “inhibited”.

`C[C@@H]1C[C@H]2[C@@H]3CCC4=CC(=O)C=C[C@]4(C)[C@@]3(F)[C@@H](O)C[C@]2(C)[C@@]1(O)C(=O)CO` [Dexa, dexamethasone, reference compound] was tested, and the “AS, arthritis score” value ([1]; D0) was 1.1±0.5, the “Wt, weight” value ([1]; D0) was 22.9±0.4 gram and the “AS, arthritis score” value ([1]; D1) was 0.9±0.5. For the same compound, the “AS, arthritis score” value ([1]; D4) was 0.4±0.2, the “AS, arthritis score” value ([1]; D6) was 0.3±0.2 and the “AS, arthritis score” value ([1]; D8) was 0.3±0.2. For the same compound, the “AS, arthritis score” value ([1]; D12) was 0.3±0.2, the “AS, arthritis score” value ([1]; D13) was 0.4±0.3 and the “AS, arthritis score” value ([1]; D15) was 0.3±0.2.

From article PMC4835877, “HM71224, a novel Bruton’s tyrosine kinase inhibitor, suppresses B cell and monocyte activation and ameliorates arthritis in a mouse model: a potential drug for rheumatoid arthritis” (Arthritis Research & Therapy, 2016)
